Experimental findings from patent publication US7417045B2, “Heterocyclic substituted pyridine or phenyl compounds with CXCR3 antagonist activity” (Schering Corporation, priority 2005, dated 2008) are described below.

Bounds are passed on as bounds.

A word on the IC50: it is the concentration needed to halve the response being measured.

The target in the assay is T1, human CXCR3 (N-delta 4) (Homo sapiens, UniProt P49682).
T1 construct: CD8 leader (N); Flag tag; expressed in transfected cells; membranes
T1 sequence (P49682 5-368 limits assumed): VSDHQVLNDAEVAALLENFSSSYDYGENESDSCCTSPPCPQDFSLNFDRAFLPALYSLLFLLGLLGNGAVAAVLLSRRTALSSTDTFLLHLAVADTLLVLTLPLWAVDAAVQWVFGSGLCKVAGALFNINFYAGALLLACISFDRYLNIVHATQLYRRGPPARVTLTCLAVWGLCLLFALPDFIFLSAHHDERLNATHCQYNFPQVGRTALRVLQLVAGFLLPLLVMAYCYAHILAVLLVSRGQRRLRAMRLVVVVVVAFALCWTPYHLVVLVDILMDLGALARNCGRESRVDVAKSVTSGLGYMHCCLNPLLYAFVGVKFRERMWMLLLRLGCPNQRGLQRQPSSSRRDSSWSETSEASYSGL
Kind of assay: Human CXCR3 (N-delta 4) Scintillation Proximity Assay (SPA), [125I] IP-10 binding. The following applies: IC50 rating; [125I] IP-10 displacement, Ba/F3-hCXCR3 (N-delta 4) membranes. The text has this:
The inventive compounds can readily be evaluated to determine activity at The CXCR3 receptors by known methods, such as, for example, Development of Human CXCR3 (N-delta 4) Binding Assay.
Cloning and Expression of Human CXCR3 (N-Delta 4):
The DNA encoding human CXCR3 was cloned by PCR using human genomic DNA (Promega, Madison, Wis.) as a template. The PCR primers were designed based on the published sequence of human orphan receptor GPR9 (1) with incorporated restriction sites, a Kozak consensus sequence, CD8 leader and Flag tag. The PCR product was subcloned into the mammalian expression vector pME18Sneo, a derivative of the SR-alpha expression vector (designated as pME18Sneo-hCXCR3 (N-delta 4).
IL-3-dependent mouse pro-B cells Ba/F3 were transfected by electroporation in 0.4 ml Dulbecco's PBS containing 4×10^6 cells with 20 μg of pME18Sneo-hCXCR3 (N-delta 4) plasmid DNA. Cells were pulsed at 400 Volts, 100 OHMs, 960 μFd. The transfected cells were under selection with 1 mg/ml G418 (Life Technologies, Gaithersburg, Md.). G418-resistant Ba/F3 clones were screened for CXCR3 expression by specific binding of [^125I] IP-10 (NEN Life Science Products, Boston, Mass.).
Preparation of Ba/F3-hCXCR3 (N-Delta 4) Membranes
Ba/F3 cells expressing human CXCR3 (N-delta 4) were pelleted and resuspended in the lysis buffer containing 10 mM HEPES, pH 7.5 and Complete® protease inhibitors (1 tablet per 100 ml) (Boehringer Mannheim, Indianapolis, Ind.) at a cell density of 20×10^6 cells per ml. After 5 minutes incubation on ice, cells were transferred to 4639 cell disruption bomb (Parr Instrument, Moline, Ill.) and applied with 1,500 psi of nitrogen for 30 minutes on ice. Large cellular debris was removed by centrifugation at 1,000× g. Cell membrane in the supernatant was sedimented at 100,000× g. The membrane was resuspended in the lysis buffer supplemented with 10% sucrose and stored at −80° C. Total protein concentration of the membrane was determined by BCA method from Pierce (Rockford, Ill.).
Human CXCR3 (N-Delta 4) Scintillation Proximity Assay (SPA)
For each assay point, 2 μg of membrane was preincubated for 1 hr with 300 μg wheat germ agglutinin (WGA) coated SPA beads (Amersham, Arlington Heights, Ill.) in the binding buffer (50 mM HEPES, 1 mM CaCl2, 5 mM MgCl2, 125 mM NaCl, 0.002% NaN3, 1.0% BSA) at room temperature. The beads were spun down, washed once, resuspended in the binding buffer and transferred to a 96-well Isoplate (Wallac, Gaithersburg, Md.). 25 pM of [^125I] IP-10 with tested compounds in a series of titration were added to start the reaction. After 3 hr reaction at room temperature, the amount of [^125I] IP-10 bound to the SPA beads was determined with a Wallac 1450 Microbeta counter.
Background: Scintillation proximity formats need no separation of bound from free tracer.
Compound `CC[C@H]1CN(c2ncc(-c3ncc[nH]3)cc2Cl)CCN1C1CCN(Cc2ccc(Br)cc2)CC1` [Compound 2] showed an IC50 of under 0.025 µM.

For the compound `CC[C@H]1CN(c2ncc(-c3ncc[nH]3)cc2Cl)CCN1C1CCN([C@@H](C(=O)NCC(F)(F)F)c2ccc(Cl)cc2)CC1` [Compound 99], the IC50 is under 0.025 µM.

`CC[C@H]1CN(c2ncc(-c3ncc[nH]3)cc2Cl)CCN1C1CCN(C(=O)c2ccc(C(=O)OC)cc2)CC1` [Compound 71]: the IC50 is under 0.025 µM.

As to `CC[C@H]1CN(c2ncc(C3=NCCN3)cc2Cl)CCN1C1CCN(C(=O)c2ccc(Cl)cc2)CC1` [Compound 58], the IC50 is under 0.025 µM.

As for `C[C@@H]1CN(C2CCN(Cc3ccc(Cl)cc3F)CC2)[C@@H](C)CN1c1ncc(-c2ncc[nH]2)cc1Cl` [Compound 79], the IC50 was under 0.025 µM.

As for `CC[C@H]1CN(c2ncc(C3=NCCN3)cc2Cl)CCN1C1CCN(C(=O)c2ccc(C#CC(C)(C)NC(=O)OC(C)(C)C)cc2)CC1` [Compound 123], the half-inhibitory concentration (IC50) fell in the range of 0.025 to 0.1 µM.

Turning to `CC[C@H]1CN(c2ncc(C3=NCCN3)cc2Cl)CCN1C1CCN(C(=O)c2ccc(Cl)cc2I)CC1` [Compound 85], the IC50 is under 0.025 µM.

For the compound `CC[C@H]1CN(c2ncc(C3=NCCN3)cc2Cl)CCN1C1CCN(Cc2ccc(C#CC(C)(C)NS(=O)(=O)NC(=O)OC(C)(C)C)cc2)CC1` [Compound 147], the IC50 is over 0.1 µM.

In the case of `CC[C@H]1CN(c2ncc(-c3ncc[nH]3)cc2Cl)CCN1C1CCN(Cc2ccc(Cl)cc2-c2ncc[nH]2)CC1` [Compound 28], the IC50 is under 0.025 µM.

Regarding `CC[C@H]1CN(c2ncc(-c3ncc[nH]3)cc2Cl)CCN1C1CCN(C(=O)c2ccc(-n3cccc3)cc2)CC1` [Compound 67], the half-inhibitory concentration (IC50) is under 0.025 µM.

Compound `CC[C@H]1CN(c2ncc(-c3ncc[nH]3)cc2Cl)CCN1C1CCN(C(=O)c2ccc(-n3ccnc3)cc2)CC1` [Compound 156] displayed an IC50 of over 0.1 µM.

Take `CC[C@H]1CN(c2ncc(-c3nnc(CO)o3)cc2Cl)CCN1C1CCN(C(CO)c2ccc(Cl)cc2)CC1` (stereo partly drawn) [Compound 39]: the IC50 is under 0.025 µM.

`CC[C@H]1CN(c2ncc(C3=NCCN3)cc2Cl)CCN1C1CCN(C(=O)c2ccc(Cl)nc2N)CC1` [Compound 42] gave an IC50 of under 0.025 µM.

`CC[C@H]1CN(c2ncc(C3=NC(C)CN3)cc2Cl)CCN1C1CCN(C(=O)c2ccc(Cl)cc2)CC1` (stereo partly drawn) [Compound 72] gave an IC50 of under 0.025 µM.

Consider `CC[C@H]1CN(c2ncc(-c3nnn[nH]3)cc2Cl)CCN1C1CCN(Cc2ccc(Cl)cc2F)CC1` [Compound 169], for which the IC50 is over 0.1 µM.

As for `CCOC(=O)C1CC1c1ccc(CN2CCC(N3CCN(c4ncc(C5=NCCN5)cc4Cl)C[C@@H]3CC)CC2)cc1` (stereo partly drawn) [Compound 75], the half-inhibitory concentration (IC50) is under 0.025 µM.

Compound `CC[C@H]1CN(c2ncc(-c3ncc[nH]3)cc2Cl)CCN1C1(C)CCN(Cc2ccc(Cl)cc2C(=O)NC)CC1` [Compound 130] yielded an IC50 of 0.025 to 0.1 µM.

In turn, `CC[C@H]1CN(c2ncc(C3=NCCN3)cc2Cl)CCN1C1CCN([C@H](CO)c2ccc(Cl)cc2)CC1` [Compound 64] came in with an IC50 of under 0.025 µM.

In turn, `CC[C@H]1CN(c2ncc(-c3ncc[nH]3)cc2Cl)CCN1C1CCN(C(=O)c2ccc(Cl)cc2I)CC1` [Compound 86] yielded an IC50 of under 0.025 µM.

`CC[C@H]1CN(c2ncc(-c3ncc[nH]3)cc2Cl)CCN1C1CCN(Cc2ccc(C#CCOC)cc2)CC1` [Compound 14] returned an IC50 of under 0.025 µM.

Compound `CC[C@H]1CN(c2ncc(C3=NCCN3)cc2Cl)CCN1C1CCN(C(=O)c2ccc(C#CC(C)(C)O)cc2)CC1` [Compound 104] showed an IC50 of 0.025 to 0.1 µM.

Compound `CC[C@H]1CN(c2ncc(-c3ncc[nH]3)cc2Cl)CCN1C1CCN(C(=O)c2ccc(Cl)cc2O)CC1` [Compound 78] gave an IC50 of under 0.025 µM.

As to `CC[C@H]1CN(c2ncc(-c3ncc[nH]3)cc2Cl)CCN1C1CCN(Cc2ccc(Cl)cc2C(=O)NC)CC1` [Compound 53], the IC50 is under 0.025 µM.

Regarding `CC[C@H]1CN(c2ncc(-c3ncc[nH]3)cc2Cl)CCN1C1CCN([C@@H](C(=O)OC)c2ccc(Br)cc2)CC1` [Compound 40], the 50% inhibitory concentration (IC50) was under 0.025 µM.

Compound `CC[C@H]1CN(c2ncc(-c3ncc[nH]3)cc2Cl)CCN1C1CCN([C@@H](C)c2ccc(Cl)cc2)CC1` [Compound 30] yielded an IC50 of under 0.025 µM.

For `CC[C@H]1CN(c2ncc(-c3ncc[nH]3)cc2Cl)CCN1C1CCN(Cc2ccc(I)cc2)CC1` [Compound 3], the IC50 was under 0.025 µM.

As for `CC[C@H]1CN(c2ncc(-c3ncc[nH]3)cc2Cl)CCN1C1CCN(C(=O)c2ccc(C#CCOC)cc2)CC1` [Compound 92], the IC50 was under 0.025 µM.

`CC[C@H]1CN(c2ncc(-c3ncc[nH]3)cc2Cl)CCN1C1CCN([C@H](C(=O)NCC(F)(F)F)c2ccc(Cl)cc2)CC1` [Compound 155] displayed a half-maximal inhibitory concentration (IC50) of over 0.1 µM.

`CC[C@H]1CN(c2ncc(-c3ncc[nH]3)cc2Cl)CCN1[C@@H]1CCN(Cc2ccc(Cl)cc2C(=O)NC)C[C@H]1O` [Compound 170] registered an IC50 of over 0.1 µM.

In turn, `CC[C@H]1CN(c2ncc(-c3ncc[nH]3)cc2Cl)CCN1C1CCN(CCC(=O)c2ccc(Cl)cc2)CC1` [Compound 95] yielded an IC50 of under 0.025 µM.

With `CC[C@H]1CN(c2ncc(-c3ncc[nH]3)cc2Cl)CCN1C1(C)CCN(C(C(=O)OC)c2ccc(Cl)cc2)CC1` (stereo partly drawn) [Compound 128], the IC50 was 0.025 to 0.1 µM.

`CC[C@H]1CN(c2ncc(-c3ncc[nH]3)cc2Cl)CCN1C1CCN(Cc2ccc(Cl)cc2-c2ncon2)CC1` [Compound 48] gave an IC50 of under 0.025 µM.

On to `CC[C@H]1CN(c2ncc(-c3ncc[nH]3)cc2Cl)CCN1C1CCN(CCCCc2ccc(Cl)cc2)CC1` [Compound 103], for which the IC50 lay within 0.025 to 0.1 µM.

`CC[C@H]1CN(c2ncc(-c3ncc[nH]3)cc2Cl)CCN1C1CCN(C(=O)c2ccc(C#CC(C)(C)NS(C)(=O)=O)cc2)CC1` [Compound 171] displayed an IC50 of over 0.1 µM.

As to `CC[C@H]1CN(c2ncc(-c3ncc[nH]3)cc2Cl)CCN1C1CCN(Cc2ccc(C#CC(C)(C)NC(=O)OC(C)(C)C)cc2)CC1` [Compound 101], the IC50 was under 0.025 µM.

The compound `CC[C@H]1CN(c2ncc(-c3ncc[nH]3)cc2Cl)CCN1C1CCN(Cc2ccc(C#CC(C)(C)NS(N)(=O)=O)cc2)CC1` [Compound 114] displayed an IC50 of 0.025 to 0.1 µM.

In turn, `CC[C@H]1CN(c2ncc(-c3ncc[nH]3)cc2Cl)CCN1C1CCN(Cc2ccc(Cl)cc2C(=O)O)CC1` [Compound 43] yielded a 50% inhibitory concentration (IC50) of under 0.025 µM.

The compound `CC[C@H]1CN(c2ncc(-c3ncc[nH]3)cc2Cl)CCN1C1CCN([C@H](C)c2ccc(Cl)cc2)CC1` [Compound 5] registered a 50% inhibitory concentration (IC50) of under 0.025 µM.

On to `CC[C@H]1CN(c2ncc(C3=NCCN3)cc2Cl)CCN1C1CCN(Cc2ccc(C#CC(C)(C)NS(N)(=O)=O)cc2)CC1` [Compound 131], for which the IC50 lay in the range of 0.025 to 0.1 µM.

With `CC[C@H]1CN(c2ncc(C3=NCCN3)cc2Cl)CCN1C1CCN(Cc2ccc(C#N)cc2)CC1` [Compound 29], the IC50 was under 0.025 µM.

The compound `CC[C@H]1CN(c2ncc(-c3ncc[nH]3)cc2Cl)CCN1C1CCN(Cc2c(F)cc(F)cc2F)CC1` [Compound 49] showed an IC50 of under 0.025 µM.

The compound `CC[C@H]1CN(c2ncc(-c3ncc[nH]3)cc2Cl)CCN1C1(C)CCN(C(CO)c2ccc(Cl)cc2)CC1` (stereo partly drawn) [Compound 38] displayed an IC50 of under 0.025 µM.

Consider `CC[C@H]1CN(c2ncc(C3=NCCN3)cc2Cl)CCN1C1CCN(Cc2ccc(Cl)cc2F)CC1` [Compound 26], for which the half-inhibitory concentration (IC50) is under 0.025 µM.

Consider `CC[C@H]1CN(c2ncc(-c3ncc[nH]3)cc2Cl)CCN1C1CCN(C(=O)c2ccc(C#N)cc2)CC1` [Compound 74], for which the IC50 was under 0.025 µM.

Consider `CC[C@H]1CN(c2ncc(-c3ncc[nH]3)cc2Cl)CCN1C1CCN([C@@H](C(=O)NC)c2ccc(Cl)cc2)CC1` [Compound 66], for which the IC50 is under 0.025 µM.
